In PubChem BioAssay (NCI):
Values joined by “and” are separate entries in the source; they are usually repeats but may differ in a detail not shown here. Equal values may be shown once.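 Test compounds were applied to cells in 96-well plates for 48 hours at 5 doses. GI50 = concentration required for 50% inhibition of growth. TGI is the concentration that stops growth completely.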

Key:
Test in all cases: DTP human tumour cell line panel, 48 h
NCI-H226 lung = tested on: NCI-H226 lung
T-47D breast = tested on: T-47D breast
SK-MEL-2 melanoma = tested on: SK-MEL-2 melanoma
K-562 leukemia = tested on: K-562 leukemia
EKVX NSCLC = tested on: EKVX NSCLC
ACHN renal = tested on: ACHN renal
DU-145 prostate = tested on: DU-145 prostate
MOLT-4 leukemia = tested on: MOLT-4 leukemia
OVCAR-4 ovarian = tested on: OVCAR-4 ovarian
MCF7 breast = tested on: MCF7 breast

For `O=c1/c(=C\c2ccc(Br)cc2)sc2n1C(c1ccc(Br)cc1)C1=C(N=2)c2ccc3ccccc3c2OCC1` (stereo unspecified), the GI50 (NCI-H226 lung) was > 100 µM, the TGI (NCI-H226 lung) was > 100 µM and the GI50 (T-47D breast) was > 100 µM. The TGI (T-47D breast) was > 100 µM, the GI50 (SK-MEL-2 melanoma) was > 100 µM and the TGI (SK-MEL-2 melanoma) was > 100 µM. For the same molecule, the GI50 (K-562 leukemia) was > 100 µM, the TGI (K-562 leukemia) was > 100 µM and the GI50 (EKVX NSCLC) was > 100 µM. For the same molecule, the TGI (EKVX NSCLC) was > 100 µM, the GI50 (ACHN renal) was > 100 µM and the TGI (ACHN renal) was > 100 µM. The GI50 (DU-145 prostate) was > 100 µM, the TGI (DU-145 prostate) was > 100 µM and the GI50 (MOLT-4 leukemia) was > 100 µM. The TGI (MOLT-4 leukemia) was > 100 µM, the GI50 (OVCAR-4 ovarian) was > 100 µM and the TGI (OVCAR-4 ovarian) was > 100 µM. The GI50 (MCF7 breast) was > 100 µM and the TGI (MCF7 breast) was > 100 µM.

`CCn1ncc(N=O)c1N` was tested, and the TGI (T-47D breast) was > 100 µM, the TGI (SK-MEL-2 melanoma) was > 100 µM and the TGI (K-562 leukemia) was > 100 µM. The TGI (EKVX NSCLC) was > 100 µM, the TGI (ACHN renal) was > 100 µM and the TGI (DU-145 prostate) was > 100 µM. The TGI (MOLT-4 leukemia) was > 100 µM and the TGI (MCF7 breast) was > 100 µM.

In the case of `Nc1nc(N)c2c(n1)CCC(S(=O)(=O)c1ccc3ccccc3c1)C2` (stereo unspecified), the TGI (NCI-H226 lung) is reported as > 100 µM, the TGI (T-47D breast) is reported as > 100 µM and the GI50 (SK-MEL-2 melanoma) is reported as 9.79 µM. The TGI (SK-MEL-2 melanoma) was > 100 µM, the GI50 (K-562 leukemia) was 0.315 µM and the TGI (K-562 leukemia) was 63.6 µM. For the same molecule, the TGI (EKVX NSCLC) was > 100 µM, the TGI (ACHN renal) was > 100 µM and the TGI (DU-145 prostate) was > 100 µM. The TGI (MOLT-4 leukemia) was 27.2 µM, the GI50 (OVCAR-4 ovarian) was 4.31 µM and the TGI (OVCAR-4 ovarian) was > 100 µM. For the same molecule, the TGI (MCF7 breast) was > 100 µM.

For `CCOc1ccc2c(c1)C(=O)c1c-2n(CCCN=[N+]=[N-])c(=O)c2cc([N+](=O)[O-])ccc12`, the GI50 (NCI-H226 lung) was 2.24 µM, the TGI (NCI-H226 lung) was 9.92 µM and the GI50 (T-47D breast) was 0.102 µM. It also gave a TGI (T-47D breast) of 1.24 µM, a GI50 (SK-MEL-2 melanoma) of 14.4 µM and a TGI (SK-MEL-2 melanoma) of 38.2 µM. The GI50 (K-562 leukemia) was 17.2 µM, the TGI (K-562 leukemia) was > 100 µM and the GI50 (EKVX NSCLC) was 32.5 µM. For the same molecule, the TGI (EKVX NSCLC) was > 100 µM, the GI50 (ACHN renal) was 2.02 µM and the TGI (ACHN renal) was 9.32 µM. It also gave a GI50 (DU-145 prostate) of 3.86 µM, a TGI (DU-145 prostate) of 38.6 µM and a GI50 (MOLT-4 leukemia) of 1.96 µM. The TGI (MOLT-4 leukemia) was 20.8 µM, the GI50 (OVCAR-4 ovarian) was 18.9 µM and the TGI (OVCAR-4 ovarian) was > 100 µM. For the same molecule, the GI50 (MCF7 breast) was 0.0261 µM and the TGI (MCF7 breast) was 6.4 µM.

For `O=C(NN1C(=O)CSC1c1c(Cl)cccc1Cl)C(O)c1ccccc1` (stereo unspecified), the GI50 (NCI-H226 lung) was 38.1 µM, the TGI (NCI-H226 lung) was > 100 µM and the GI50 (T-47D breast) was 40.4 µM. The TGI (T-47D breast) was > 100 µM, the GI50 (SK-MEL-2 melanoma) was 50.5 µM and the TGI (SK-MEL-2 melanoma) was > 100 µM. For the same molecule, the GI50 (K-562 leukemia) was 29.7 µM, the TGI (K-562 leukemia) was 76 µM and the GI50 (EKVX NSCLC) was 59.6 µM. For the same molecule, the TGI (EKVX NSCLC) was > 100 µM, the GI50 (ACHN renal) was 28.4 µM and the TGI (ACHN renal) was > 100 µM. The GI50 (DU-145 prostate) was > 100 µM, the TGI (DU-145 prostate) was > 100 µM and the GI50 (MOLT-4 leukemia) was 25 µM. For the same molecule, the TGI (MOLT-4 leukemia) was 80.7 µM, the GI50 (OVCAR-4 ovarian) was 29.1 µM and the TGI (OVCAR-4 ovarian) was > 100 µM. For the same molecule, the GI50 (MCF7 breast) was 44.2 µM and the TGI (MCF7 breast) was > 100 µM.

In the case of `NC1(C(=O)N[C@@H](CCO)c2ccc(Cl)cc2)CCN(c2ncnc3[nH]ccc23)CC1`, the GI50 (NCI-H226 lung) is reported as 2.14 µM and 7.92 µM, the TGI (NCI-H226 lung) is reported as > 83.4 µM and the GI50 (T-47D breast) is reported as 0.167 µM and 0.439 µM. The TGI (T-47D breast) was > 76.8 µM, the GI50 (SK-MEL-2 melanoma) was > 4.51 µM and 16.3 µM and the TGI (SK-MEL-2 melanoma) was > 82.8 µM. For the same molecule, the GI50 (K-562 leukemia) was > 5.28 µM and 59.9 µM, the TGI (K-562 leukemia) was > 100 µM and the GI50 (EKVX NSCLC) was 7.46 µM. For the same molecule, the TGI (EKVX NSCLC) was > 100 µM, the GI50 (ACHN renal) was > 2.01 µM and 9.6 µM and the TGI (ACHN renal) was > 100 µM. For the same molecule, the GI50 (DU-145 prostate) was > 2.74 µM and 29.7 µM, the TGI (DU-145 prostate) was > 100 µM and the GI50 (MOLT-4 leukemia) was 0.505 µM and 0.644 µM. The TGI (MOLT-4 leukemia) was > 10 µM and 21.5 µM, the GI50 (OVCAR-4 ovarian) was > 3.08 µM and 33.7 µM and the TGI (OVCAR-4 ovarian) was > 100 µM. The GI50 (MCF7 breast) was 0.632 µM and 1.72 µM and the TGI (MCF7 breast) was > 100 µM.

With `CC1(C)C(CC(=O)O)CCCC1CC(=O)O` (stereo unspecified) the TGI (NCI-H226 lung) was > 100 µM, the TGI (T-47D breast) was > 100 µM and the TGI (SK-MEL-2 melanoma) was > 100 µM. For the same molecule, the TGI (K-562 leukemia) was > 100 µM, the TGI (EKVX NSCLC) was > 100 µM and the TGI (ACHN renal) was > 100 µM. For the same molecule, the TGI (DU-145 prostate) was > 100 µM, the TGI (MOLT-4 leukemia) was > 100 µM and the TGI (OVCAR-4 ovarian) was > 100 µM. For the same molecule, the TGI (MCF7 breast) was > 100 µM.
